Earlier results in US7419996B2, “Parenteral and oral formulations of benzimidazoles” (The University of Houston, priority 2003, dated 2008).
Where two headings read alike, the source gives them in different places.

Test system: rodents

Structure (SMILES): C[S+](C)[O-] [DMSO, dimethylsulfoxide]
- LD50 (intravenously): 3.1 gm/kg
- LD50 (orally): 7.92 gm/kg
